From US10125118B2, “Heteroaryl compounds and their use as therapeutic drugs” (Dong-A Socio Holdings Co., Ltd., priority 2015, dated 2018)

These molecules were tested against human c-MER catalytic domain (Homo sapiens (Human), UniProt Q12866) (assay: LanthaScreen TR-FRET kinase assay, c-MER). Conditions: read-out: Mer TK inhibition (IC50); Biochemical IC50, TR-FRET, 10 uM ATP.
Sequence of human c-MER catalytic domain (Q12866 587-858): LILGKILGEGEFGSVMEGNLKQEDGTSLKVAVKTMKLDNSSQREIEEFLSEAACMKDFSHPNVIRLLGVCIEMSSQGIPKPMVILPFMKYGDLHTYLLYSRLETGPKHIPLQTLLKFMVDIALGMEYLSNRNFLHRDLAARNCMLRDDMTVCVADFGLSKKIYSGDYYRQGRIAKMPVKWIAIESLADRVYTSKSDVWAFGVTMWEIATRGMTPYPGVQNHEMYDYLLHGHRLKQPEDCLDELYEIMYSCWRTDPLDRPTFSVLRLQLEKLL
In the case of `COC(=O)[C@H](COCc1ccccc1)NC(=O)c1cc(-c2cnn(C)c2)cnc1N` [Example 120, methyl N-(2-amino-5-(1-methyl-1H-pyrazol-4-yl)nicotinoyl)-O-benzyl-L-serinate], the IC50 is reported as greater than 1000 nM. `COC(=O)[C@@H](NC(=O)c1cc(-c2cnn(C)c2)cnc1N)[C@@H](C)OCc1ccccc1` [Example 121, methyl N-(2-amino-5-(1-methyl-1H-pyrazol-4-yl)nicotinoyl)-O-benzyl-L-threoninate] was tested, and the IC50 was greater than 1000 nM. With `CNC(=O)[C@@H](NC(=O)c1cc(-c2cnn(C)c2)cnc1N)[C@@H](C)OCc1ccccc1` [Example 122, 2-amino-N-((2S,3R)-3-(benzyloxy)-1-(methylamino)-1-oxobutan-2-yl)-5-(1-methyl-1H-pyrazol-4-yl)nicotinamide] the IC50 was greater than 1000 nM. Work on `CCCNC(=O)[C@@H](NC(=O)c1cc(-c2cnn(C)c2)cnc1N)[C@@H](C)OCc1ccccc1` [Example 123, 2-amino-N-((2S,3R)-3-(benzyloxy)-1-oxo-1-(propylamino)butan-2-yl)-5-(1-methyl-1H-pyrazol-4-yl)nicotinamide] yielded an IC50 greater than 1000 nM. Molecule `C[C@@H](OCc1ccccc1)[C@H](NC(=O)c1cc(-c2cnn(C)c2)cnc1N)C(=O)NC1CCCC1` [Example 124, 2-amino-N-((2S,3R)-3-(benzyloxy)-1-(cyclopentylamino)-1-oxobutan-2-yl)-5-(1-methyl-1H-pyrazol-4-yl)nicotinamide] has an IC50 greater than 1000 nM. `C[C@@H](OCc1ccccc1)[C@H](NC(=O)c1cc(-c2cnn(C)c2)cnc1N)C(=O)N1CCCC1` [Example 125, 2-amino-N-((2S,3R)-3-(benzyloxy)-1-oxo-1-(pyrrolidin-1-yl)butan-2-yl)-5-(1-methyl-1H-pyrazol-4-yl)nicotinamide] was tested, and the IC50 was greater than 1000 nM. `C[C@H](NC(=O)c1cc(-c2cnn(C)c2)cnc1N)C(=O)OCc1ccccc1` [Example 126, benzyl (2-amino-5-(1-methyl-1H-pyrazol-4-yl)nicotinoyl)-L-alaninate] showed an IC50 greater than 1000 nM. For `Cn1cc(-c2cnc(N)c(C(=O)N[C@@H](CO)C(=O)OCc3ccccc3)c2)cn1` [Example 128, benzyl (2-amino-5-(1-methyl-1H-pyrazol-4-yl)nicotinoyl)-L-serinate], the IC50 was greater than 1000 nM. In the case of `Cn1cc(-c2cnc(N)c(C(=O)N[C@H]3CCC[C@@H]3OCc3ccccc3)n2)cn1` [Example 129, 3-amino-N-((1S,2S)-2-(benzyloxy)cyclopentyl)-6-(1-methyl-1H-pyrazol-4-yl)pyrazine-2-carboxamide], the IC50 is reported as greater than 1000 nM. `Cn1cc(-c2cnc(N)c(C(=O)N[C@H]3CCCc4ccccc43)n2)cn1` [Example 131, (S)-3-amino-6-(1-methyl-1H-pyrazol-4-yl)-N-(1,2,3,4-tetrahydronaphthalen-1-yl)pyrazine-2-carboxamide] gave an IC50 greater than 1000 nM. Work on `Cc1c(N)cccc1-c1ccc(CO[C@H]2CCC[C@@H]2NC(=O)c2cc(-c3cnn(C)c3)cnc2N)cc1` [Example 139, 2-amino-N-((1S,2S)-2-((3′-amino-2′-methyl-[1,1′-biphenyl]-4-yl)methoxy)cyclopentyl)-5-(1-methyl-1H-pyrazol-4-yl)nicotinamide] yielded an IC50 greater than 1000 nM. `Cn1cc(-c2cnc(N)c(C(=O)N[C@H]3CCC[C@@H]3OCc3ccc(-c4cccc(CN)c4)cc3)c2)cn1` [Example 143] was tested, and the IC50 was greater than 1000 nM. `CN1CCN(Cc2ccc(-c3ccc(CO[C@H]4CCCC[C@@H]4NC(=O)c4cc(-c5cnn(C)c5)cnc4N)cc3)cc2)CC1` [Example 166, 2-amino-5-(1-methyl-1H-pyrazol-4-yl)-N-((1S,2S)-2-((4′-((4-methylpiperazin-1-yl)methyl)-[1,1′-biphenyl]-4-yl)methoxy)cyclohexyl)nicotinamide] showed an IC50 greater than 1000 nM. With `CN1CCN(C(C)(C)c2ccc(-c3ccc(CO[C@H]4CCC[C@@H]4NC(=O)c4cccnc4N)cc3)cc2)CC1` [Example 167, 2-amino-N-((1S,2S)-2-((4′-(2-(4-methylpiperazin-1-yl)propan-2-yl)-[1,1′-biphenyl]-4-yl)methoxy)cyclopentyl)nicotinamide] the IC50 was less than 10 nM. In the case of `Cn1cc(-c2cnc(N)c(C(=O)N[C@H]3CCC[C@@H]3OCc3cccc(-c4cccc(O)c4)c3)c2)cn1` [Example 169, 2-amino-N-((1S,2S)-2-((3′-hydroxy-[1,1′-biphenyl]-3-yl)-methoxy)cyclopentyl)-5-(1-methyl-1H-pyrazol-4-yl)nicotinamide], the IC50 is reported as greater than 1000 nM. With `Cn1cc(-c2cnc(N)c(C(=O)N[C@H]3CCC[C@@H]3OCc3cccc(-c4cccc(N)c4)c3)c2)cn1` [Example 170, 2-amino-N-((1S,2S)-2-((3′-amino-[1,1′-biphenyl]-3-yl)methoxy)-cyclopentyl)-5-(1-methyl-1H-pyrazol-4-yl)nicotinamide] the IC50 was greater than 1000 nM. `Cn1cc(-c2cnc(N)c(C(=O)N[C@H]3CCC[C@@H]3OCc3cccc(-c4cccc(CO)c4)c3)c2)cn1` [Example 171, 2-amino-N-((1S,2S)-2-((3′-(hydroxymethyl)-[1,1′-biphenyl]-3-yl)-methoxy)cyclopentyl)-5-(1-methyl-1H-pyrazol-4-yl)nicotinamide] showed an IC50 greater than 1000 nM. With `CN1CCN(Cc2ccc(-c3ccc(CO[C@H]4CCC[C@@H]4NC(=O)c4cc(-c5cnn(C)c5)cnc4N)cc3)nc2)CC1` [Example 204, 2-amino-5-(1-methyl-1H-pyrazol-4-yl)-N-((1S,2S)-2-((4-(5-((4-methylpiperazin-1-yl)methyl)pyridin-2-yl)benzyl)oxy)cyclopentyl)nicotinamide] the IC50 was less than 10 nM. `CN1CCN(Cc2ccc(-c3ccc(CO[C@H]4CCC[C@@H]4NC(=O)c4cccnc4N)cc3)cc2C(F)(F)F)CC1` [Example 207, 2-amino-N-((1S,2S)-2-((4′-((4-methylpiperazin-1-yl)methyl)-3′-(trifluoromethyl)-[1,1′-biphenyl]-4-yl)methoxy)cyclopentyl)nicotinamide] gave an IC50 of less than 10 nM. `CC(c1ccc(-c2ccc(CO[C@H]3CCC[C@@H]3NC(=O)c3cc(Cl)cnc3N)cc2)cc1)N1CCN(C)CC1` (stereo partly shown) [Example 231] showed an IC50 of less than 10 nM. With `CN(C)CCCc1ccc(CO[C@H]2CCC[C@@H]2NC(=O)c2cc(-c3cnn(C)c3)cnc2N)cc1` [Example 244, 2-amino-N-((1S,2S)-2-((4-(3-(dimethylamino)propyl)benzyl)oxy)-cyclopentyl)-5-(1-methyl-1H-pyrazol-4-yl)nicotinamide] the IC50 was greater than 1000 nM. With `CN(C)CCOc1ccc(-c2ccc(CO[C@H]3CCC[C@@H]3NC(=O)c3cc(-c4cnn(C)c4)cnc3N)cc2)cc1` [Example 245, 2-amino-N-((1S,2S)-2-((4′-(2-(dimethylamino)ethoxy)-[1,1′-biphenyl]-4-yl)methoxy)cyclopentyl)-5-(1-methyl-M-pyrazol-4-yl)nicotinamide] the IC50 was less than 10 nM. `Cn1cc(-c2cnc(N)c(C(=O)N[C@H]3CCC[C@@H]3OCc3ccccc3)c2)c(CNCCO)n1` [Example 262, 2-amino-N-((1S,2S)-2-(benzyloxy)cyclopentyl)-5-(3-(((2-hydroxyethyl)amino)methyl)-1-methyl-1H-pyrazol-4-yl)nicotinamide] showed an IC50 greater than 1000 nM. `Cn1cc(-c2cnc(N)c(C(=O)N[C@H]3CCC[C@@H]3OCc3ccccc3)c2)c(CN2CCCC(O)C2)n1` (stereo partly drawn) [Example 263, 2-amino-N-((1S,2S)-2-(benzyloxy)cyclopentyl)-5-(3-((3-hydroxypiperidin-1-yl)methyl)-1-methyl-1H-pyrazol-4-yl)nicotinamide] was tested, and the IC50 was greater than 1000 nM. With `N#Cc1ccc(-c2cnc(N)c(C(=O)N[C@H]3CCC[C@@H]3OCc3ccccc3)c2)cc1` [Example 264, 2-amino-N-((1S,2S)-2-(benzyloxy)cyclopentyl)-5-(4-cyanophenyl)-nicotinamide] the IC50 was greater than 1000 nM. With `Nc1ncc(-c2ccc(Oc3ccccc3)cc2)cc1C(=O)N[C@H]1CCC[C@@H]1OCc1ccccc1` [Example 267, 2-amino-N-((1S,2S)-2-(benzyloxy)cyclopentyl)-5-(4-phenoxyphenyl)nicotinamide] the IC50 was greater than 1000 nM. Molecule `Cc1ccc(CO[C@H]2CCC[C@@H]2NC(=O)c2cc(-c3ccc(CNCC4CCN(C)CC4)cc3)cnc2N)cc1C` [Example 329, 2-amino-N-((1S,2S)-2-((3,4-dimethylbenzyl)oxy)cyclopentyl)-5-(4-((((1-methylpiperidin-4-yl)methyl)amino)methyl)phenyl)nicotinamide] has an IC50 of less than 10 nM. `Cc1ccc(CO[C@H]2CCC[C@@H]2NC(=O)c2cc(-c3ccc(C(=O)N4CCC(N5CCCC5)CC4)c(C)c3)cnc2N)cc1C` [Example 330] was tested, and the IC50 was less than 10 nM. `Nc1ncc(-c2cnn(C3CCNCC3)c2)nc1C(=O)N[C@H]1CCCc2ccccc21` [Example 362, (S)-3-amino-6-(1-(piperidin-4-yl)-1H-pyrazol-4-yl)-N-(1,2,3,4-tetrahydronaphthalen-1-yl)pyrazine-2-carboxamide] was tested, and the IC50 was greater than 1000 nM. Molecule `CN1CCN(Cc2ccc(-c3ccc(CO[C@H]4CCC[C@@H]4NC(=O)c4cc(C5=CCCCC5)cnc4N)cc3)cc2)CC1` [Example 382, 2-amino-5-(cyclohex-1-en-1-yl)-N-((1S,2S)-2-((4′-((4-methylpiperazin-1-yl)methyl)-[1,1′-biphenyl]-4-yl)methoxy)cyclopentyl)nicotinamide] has an IC50 of less than 10 nM. For `CN1CCN(Cc2ccc(-c3ccc(CO[C@H]4COCC4NC(=O)c4cc(-c5cnn(C)c5)cnc4N)cc3)cc2)CC1` (stereo partly shown) [Example 454], the IC50 was less than 10 nM. With `CN1CCN(Cc2ccc(Nc3ccc(C(=O)N[C@H]4CCC[C@@H]4OCc4ccccc4)c(N)n3)cc2)CC1` [Example 456, 2-amino-N-((1S,2S)-2-(benzyloxy)cyclopentyl)-6-((4-((4-methylpiperazin-1-yl)methyl)phenyl)amino)nicotinamide] the IC50 was greater than 1000 nM. Work on `Nc1nc(Nc2ccccc2)ccc1C(=O)N[C@H]1CCC[C@@H]1OCc1ccccc1` [Example 457, 2-amino-N-((1S,2S)-2-(benzyloxy)cyclopentyl)-6-(phenylamino)-nicotinamide] yielded an IC50 greater than 1000 nM. `CN1CCN(c2ccc(Nc3ccc(C(=O)N[C@H]4CCC[C@@H]4OCc4ccccc4)c(N)n3)cc2)CC1` [Example 458, 2-amino-N-((1S,2S)-2-(benzyloxy)cyclopentyl)-6-((4-(4-methylpiperazin-1-yl)phenyl)amino)nicotinamide] showed an IC50 greater than 1000 nM.
